Results on six molecules are retold here after publication PMC5641094, “A peptide antagonist of Prep1-p160 interaction improves ceramide-induced insulin resistance in skeletal muscle cells” (Oncotarget, 2017).

Ends that are not written are not given here. * marks the point of attachment. Biotin = O=C1N[C@H]2[C@H](CS[C@H]2CCCCC(=O)*)N1

Experiment [1] deals with Prep1 mRNA. Nature of the experiment: Real-time RT-PCR of Prep1 mRNA in L6 cells. The format is cell-based, rat. Conditions: preliminary data. The method, then:
(§1) Figure 2 Effect of ceramides on Prep1 and p160 mRNA expression and of Prep1-p160 coprecipitation L6 cells were treated with C2cer (10μM) for 18h and Prep1 (A) or p160 (B) mRNA levels were analyzed by real-time RT-PCR analysis. Data were normalized by the amount of GAPDH mRNA, used as internal control. Bars represent the mean ± SD of three independent experiments, each performed in triplicate. (C) L6 cells were treated with cycloheximide (CHX) at 40μg/mL concentration for 18h and the lysates were analyzed by Western blot with anti-p160 and beta-actin. The autoradiograph shown is representative of three different experiments and subjected to densitometric analysis. (D) Protein lysates from L6 cells treated with C2cer as indicated, were immunoprecipitated with Prep1 antibody and immunoblotted with p160 or Prep1 antibodies. The autoradiograph shown is representative of three different experiments and subjected to densitometric analysis. Asterisks denote statistically significant differences (*p<0.05; **p<0.01).
Total cellular RNA was isolated from L6 cells by using the RNeasy kit (QIAGEN Sciences, Germany), according to manufacturer instructions. 1μg of cell RNA was reverse-transcribed using Superscript III Reverse Transcriptase (Life Technologies Carlsbad, CA, USA). PCR reactions were analyzed using IQTM SYBR Green Supermix (Bio-Rad, Hercules, CA). […]

Experiment [2] deals with Prep1 and p160 protein levels in L6 cells. Description: Western blot of Prep1 and p160 protein levels in L6 cells. Format: cell-based, rat. Conditions: CHX 40μg/ml, 18h. The method, then:
Figure 1 Effect of ceramides dose-response and time-course on Prep1 and p160 protein levels L6 skeletal muscle cells were treated with different concentration of C2cer (10μM and 100μM for 18h) (A) and for different time (10μM for 6h and 18h) (B). Protein lysates were analyzed by Western blot using antibodies for Prep1, p160 and for the beta-actin, as a loading control. Blots were detected by ECL and autoradiography. The autoradiographs are representative of four independent experiments. Asterisks denote statistically significant differences (*p<0.05; **p<0.01).
as §1
Figure 3 Design and in vitro effects of Prep1(54-72) peptide on Prep1/p160 association (A) Binding curves of Prep1(59-72) and Prep1(54-72) peptides to p160_20-160 by ELISA-like assays. Biotinylated peptides at several concentrations were added in triplicate to a 96-well plate coated with p160_20-160 (0.1μM). Experiments were performed at least twice and the average results fitted using GraphPad Prism. […] (B) Competition binding experiments. His6-tagged-p160_20-160 at 0.25μM was incubated with Prep1(59-72) and Prep1(54-72) at concentrations ranging between 0.001÷10μM and added to a 96-well plate coated with Prep1_45-155 (0.10μM). Results are the average of three independent experiments. (C) L6 cells were incubated with increasing concentrations of the fluorescein-conjugated peptide (FITC-Prep1(54-72)) and peptide uptake was detected by FACS analysis of fluorescein-labeled cells. Bars represent the mean ± SD of four independent experiments. (D) L6 muscle cells incubated with Prep1(54-72) were stimulated with C2cer (10μM) for 18h. Protein lysates were immunoprecipitated with Prep1 antibodies and analyzed by Western blot using antibodies for p160 or for Prep1. (E) An aliquot of the lysate was used to measure protein expression of Prep1 and p160 and the beta-actin used as loading control. The blots were detected by ECL and autoradiography. The autoradiograph is representative of three independent experiments. Asterisks denote statistically significant differences (*p<0.05; **p<0.01).
L6 rat skeletal muscle cells (ATCC, Manassas, VA, USA) were cultured in DMEM supplemented with 10% FBS and 1% penicillin/streptomycin solution at 37°C in a humidified 95% air and 5% CO2 atmosphere (all vol./vol.). […]
Total cell lysates were obtained and separated by SDS-PAGE. […] The protein concentrations in the cell lysates were measured using a Bio-Rad DC (detergent compatible) assay. […]

For experiment [3], the target named is T1, p160_20-160 (Homo sapiens, UniProt Q9BQG0).
T1 construct: were added to a plate coated with p160_20-160 (0.1μM); His6; made in house
T1 sequence (Q9BQG0 20-160): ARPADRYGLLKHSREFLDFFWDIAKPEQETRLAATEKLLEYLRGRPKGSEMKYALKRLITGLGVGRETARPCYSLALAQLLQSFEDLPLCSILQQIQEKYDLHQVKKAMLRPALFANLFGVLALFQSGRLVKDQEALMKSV
Description: ELISA-like direct binding of biotinylated Prep1 peptides to coated p160_20-160. Conditions: N-terminally biotinylated peptide variants; plate coated with p160_20-160 (0.1μM); streptavidin-HRP; one-site binding fit; triplicate, performed at least twice. From the text:
To address the significance of the association between Prep1 and p160 mediated by C2cer, we generated a synthetic inhibitor of the Prep1/p160 interaction. […] The synthetic peptide covering such stretch of residues was therefore chosen to generate a potential inhibitor. […] Thus, we designed and chemically synthesized a peptide spanning residues 59-72, hereafter Prep1(59-72), which comprises the predicted α-helix and a short loop at the N-terminus (Supplementary Figure 2A, upper panel). […]
(§2) Figure 3 Design and in vitro effects of Prep1(54-72) peptide on Prep1/p160 association (A) Binding curves of Prep1(59-72) and Prep1(54-72) peptides to p160_20-160 by ELISA-like assays. […] (C) L6 cells were incubated with increasing concentrations of the fluorescein-conjugated peptide (FITC-Prep1(54-72)) and peptide uptake was detected by FACS analysis of fluorescein-labeled cells. […] Protein lysates were immunoprecipitated with Prep1 antibodies and analyzed by Western blot using antibodies for p160 or for Prep1. […] The blots were detected by ECL and autoradiography. […]
ELISA experiments were performed using an integrated platform for High-Throughput Screening (Hamilton Robotics, Bonaduz, CH) comprising a fully equipped Starlet 8 channel liquid handler, a robotic arm, a washer and a multi-wavelength plate reader. […] The binding was detected by anti-His HRP-conjugated antibody. […]

The target of experiment [4] is T2, p160_20-160/Prep1_45-155 binding (Homo sapiens, UniProt Q9BQG0).
T2 construct: pre-incubating the His6-tagged-p160_20-160 at 0.25μM with peptides; made in house
T2 sequence (Q9BQG0 20-160): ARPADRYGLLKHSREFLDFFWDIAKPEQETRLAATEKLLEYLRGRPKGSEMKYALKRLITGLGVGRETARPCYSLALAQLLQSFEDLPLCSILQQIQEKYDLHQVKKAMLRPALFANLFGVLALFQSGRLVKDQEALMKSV
Nature of the experiment: ELISA-like competition of p160_20-160/Prep1_45-155 binding. The following applies: His6-p160_20-160 0.25μM pre-incubated with peptide 0.001-10μM; plate coated with Prep1_45-155 (0.10μM); anti-His HRP; average of three experiments.
Source text: To address the significance of the association between Prep1 and p160 mediated by C2cer, we generated a synthetic inhibitor of the Prep1/p160 interaction. […] The synthetic peptide covering such stretch of residues was therefore chosen to generate a potential inhibitor. […] Thus, we designed and chemically synthesized a peptide spanning residues 59-72, hereafter Prep1(59-72), which comprises the predicted α-helix and a short loop at the N-terminus (Supplementary Figure 2A, upper panel). We also designed and prepared an additional peptide with a slightly longer N-terminal end, named Prep1(54-72) (Supplementary Figure 2A, lower panel), to increase the probability of obtaining a molecule with helical features. […] In order to test the affinity of Prep1 synthetic peptides to p160 protein, ELISA-like experiments were developed where N-terminally biotinylated peptide variants were added to p160_20-160 – coated 96-well plates. As shown in Figure 3A either variants bound p160_20-160 domain in a dose-dependent and saturable manner. […]
as §2
ELISA experiments were performed using an integrated platform for High-Throughput Screening (Hamilton Robotics, Bonaduz, CH) comprising a fully equipped Starlet 8 channel liquid handler, a robotic arm, a washer and a multi-wavelength plate reader. […] In particular, several concentrations of biotinylated peptides at several concentrations were added to a plate coated with p160_20-160 (0.1μM) and binding was detected with streptavidin-HRP. […] The binding was detected by anti-His HRP-conjugated antibody. […]

The test system of experiment [5] is L6 cells. Description: Glycogen content in L6 cells. Format: cell-based, rat. Conditions: insulin 100nM, mean of three experiments. The method, then:
(§3) Figure 6 Effect of Prep1(54-72) peptide on glycogen content and 2-DG uptake L6 control and Prep1 overexpressing cells were stimulated with Insulin (100nM) and/or C2cer (10μM) and incubated with Prep1(54-72). (A) Glycogen content and (B) 2-DG uptake were measured as described in methods. Bars represent the mean ± SD of three independent experiments. Asterisks denote statistically significant differences (*p<0.05; **p<0.01; ***p<0.001).
(§4) Glycogen was isolated from L6 cells homogenized in 0.1% SDS, saturated with Na2SO4 for 30 minutes at 37°C, followed by ethanol (EtOH) precipitation. Glycogen content was determined as previously described. 2-DG uptake by the L6 cells was measured as previously reported.

The test system of experiment [6] is L6 cells. Description: 2-DG uptake in L6 cells. Format: cell-based, rat. Conditions: insulin 100nM, mean of three experiments. The method, then:
as §3, §4

For experiment [7], the system named is IRS1 tyrosine phosphorylation. Description: IRS1 tyrosine phosphorylation, immunoprecipitation and Western blot. The following applies: L6 cells, insulin 100nM. The format is cell-based, rat. As to the method:
(§5) Figure 4 Prep1(54-72) peptide restores the insulin signaling inhibited by C2cer and Prep1 L6 cells were stimulated with insulin (100nM) and incubated with Prep1(54-72) in presence of C2cer at 10μM for 18h (A-B) or stable transfection of Prep1 (C-D). Protein lysates were immunoprecipitated with specific IR or IRS1 antibodies and analyzed by Western blot using antibodies for phosphotyrosines (pY) and beta-actin as loading control. Blots were detected by ECL and autoradiography. The autoradiographs are representative of three independent experiments. Asterisks denote statistically significant differences (*p<0.05; **p<0.01).
(§6) Total cell lysates were obtained and separated by SDS-PAGE. Briefly, cells were solubilized with lysis buffer containing 50mM HEPES, 150mM NaCl, 10mM EDTA, 10mM Na4P2O7, 2mM sodium orthovanadate, 50mM NaF, 1mM phenylmethylsulfonyl fluoride, 10μg/ml aprotinin, 10μg/ml leupeptin, pH 7.4, and 1% (v/v) Triton X-100. Lysates were clarified by centrifugation at 12,000g for 20 minutes at 4°C. The protein concentrations in the cell lysates were measured using a Bio-Rad DC (detergent compatible) assay. Immunoprecipitation and Western blot analysis have been performed as previously described.

Experiment [8] concerns IR tyrosine phosphorylation. Description: IR tyrosine phosphorylation, immunoprecipitation and Western blot. The following applies: L6 cells, insulin 100nM. The format is cell-based, rat. The method, then: as §5, §6
Experiment [9] deals with T3, His6-tagged p160(20-160) (UniProt Q7TPV4 20-160).
T3 construct: also called His6-p160(20-160); p160(20-160) domain
T3 sequence (looked up): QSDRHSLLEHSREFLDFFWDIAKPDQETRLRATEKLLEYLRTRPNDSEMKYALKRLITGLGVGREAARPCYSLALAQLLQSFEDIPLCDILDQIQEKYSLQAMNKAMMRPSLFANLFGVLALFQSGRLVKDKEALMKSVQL
Description: ELISA; ELISA-like direct binding: 96-well plate coated with p160(20-160) (0.1 uM); biotinylated peptides at several concentrations added in triplicate; detection with streptavidin-HRP; one-site binding fit (GraphPad Prism). The following applies: both partners purified.

Consider `Cc1ccc(NCCCc2ccccc2)c(N)c1` [JSH-23], for which the “effect on C2cer-induced Prep1 mRNA expression” value in [1] is listed as “reverts the effect of C2cer”.
Regarding `C[C@@H]1C[C@@H]([C@H](O)CC2CC(=O)NC(=O)C2)C(=O)[C@@H](C)C1` [cycloheximide (CHX), cycloheximide], the “reduction of p160 cellular levels” value in experiment [2] was 50%.
Regarding Ac-RHPLFPLLALLFEK-NH2 [Prep1(59-72)], in experiment [3], the Kd came to 1250 nM. In addition, in [4], the “IC50, inhibition of p160_20-160/Prep1_45-155 binding” value is given as “did not converge to a meaningful value”.
Turning to “insulin: insulin used at 100nM to stimulate L6 cells”, the “stimulation of glycogen synthesis” value in experiment [5] was found to be 1.3 fold. The “stimulation of glucose uptake (2-DG)” value in experiment [6] came to 2.1 fold. The “stimulation of IRS1 tyrosine phosphorylation” value in experiment [7] was 1.1 fold. In experiment [8], the “stimulation of IR tyrosine phosphorylation” value worked out at 1.5 fold.

B1: N-terminally biotinylated Prep1(54-72) peptide (peptide)
peptide: Biotin-KQAIYRHPLFPLLALLFEK
notes: Prep1 (Pbx regulating protein 1), stretch of the HR1 domain, named residues 54-72; source: synthetic peptide (Fmoc solid phase, RP-HPLC purified), biotin labelled
Turning to B1, binding in [9] was put at a Kd of 180 ± 40 nM.

B2: N-terminally biotinylated Prep1(59-72) peptide (peptide)
peptide: Biotin-RHPLFPLLALLFEK
notes: Prep1 (Pbx regulating protein 1), stretch of the HR1 domain, named residues 59-72; source: synthetic peptide (Fmoc solid phase, RP-HPLC purified), biotin labelled
On to B2, for which the Kd in experiment [9] was 1250 ± 80 nM.
